## */C=C/c1c(OC(=O)c2ccc(C(=O)Oc3ccc4ccccc4c3/C=C/c3cccc(*)n3)cc2)ccc2ccccc12 (repeat unit)
  glass transition temperature: 145.00 °C

## *C(=O)Nc1cccc(Oc2cccc(Oc3cccc(NC(=O)c4ccc5c(c4)C(=O)N(c4cccc(Oc6cccc(Oc7cccc(N8C(=O)c9ccc(*)cc9C8=O)c7)c6C#N)c4)C5=O)c3)c2C#N)c1 (repeat unit)
  glass transition temperature: 214.00 °C

## *C(=O)c1ccc2c(c1)C(=O)N(C1CCC(CC3CCC(N4C(=O)c5ccc(*)cc5C4=O)CC3)CC1)C2=O (repeat unit)
  glass transition temperature: 254.00 °C

## *C(=O)c1ccc2c(c1)C(=O)N(c1c(-c3ccccc3)cc(-c3ccc(-c4cc(-c5ccccc5)c(N5C(=O)c6ccc(*)cc6C5=O)c(-c5ccccc5)c4)cc3)cc1-c1ccccc1)C2=O (repeat unit)
  glass transition temperature: 265.00 °C

## *C(=O)c1ccc2c(c1)C(=O)N(c1cc(N3C(=O)c4ccc(*)cc4C3=O)c(O)cc1O)C2=O (repeat unit)
  glass transition temperature: 324.00 °C

## *CC1CC2CC1C1CCC(CN3C(=O)c4ccc(C(=O)c5ccc6c(c5)C(=O)N(*)C6=O)cc4C3=O)C21 (repeat unit)
  glass transition temperature: 217.00 °C

## *CC1CCCC(CN2C(=O)c3ccc(Oc4ccc5c(c4)C(=O)N(*)C5=O)cc3C2=O)C1 (repeat unit)
  glass transition temperature: 199.00 °C

## *CCCCCCCCN1C(=O)c2ccc(Oc3ccc4c(c3)C(=O)N(*)C4=O)cc2C1=O (repeat unit)
  glass transition temperature: 145.00 °C

## *CCCCCCCN1C(=O)c2ccc(Oc3ccc4c(c3)C(=O)N(*)C4=O)cc2C1=O (repeat unit)
  glass transition temperature: 110.00 °C

## *CCOC(=O)c1ccc(/C(C#N)=C(\c2ccc(OC)cc2)N2CCC(*)CC2)cc1 (repeat unit)
  glass transition temperature: 167.00 °C

## *Oc1ccc(OC(=O)c2cccc(Sc3ccc(OC(=O)c4ccc(C(=O)Oc5ccc(Sc6cccc(C(*)=O)c6)cc5)cc4)cc3)c2)cc1-c1ccccc1 (repeat unit)
  glass transition temperature: 128.00 °C

## *Oc1ccc2cc(OC(=O)c3ccc(-c4ccc(C(*)=O)cc4)cc3-c3ccccc3)ccc2c1 (repeat unit)
  glass transition temperature: 125.00 °C

## *Oc1cccc(C(F)(F)C(F)(F)C(F)(F)c2cccc(OC(*)=O)c2)c1 (repeat unit)
  glass transition temperature: 46.00 °C

## *Oc1cccc(OC(=O)c2ccc(OC(=O)c3cccc(C(=O)Oc4ccc(C(*)=O)cc4)c3)cc2)c1 (repeat unit)
  glass transition temperature: 158.00 °C

## *Oc1cccc(OC2(F)C(*)(F)C(F)(F)C2(F)F)c1 (repeat unit)
  glass transition temperature: 32.00 °C

## *Oc1cccc(Oc2ccc(C(=O)Oc3cccc(OC(=O)c4ccc(*)cc4)c3)cc2)c1 (repeat unit)
  glass transition temperature: 131.00 °C

## *c1cc(Br)c(Oc2c(Br)cc(N3C(=O)c4ccc(Oc5ccc6c(c5)C(=O)N(*)C6=O)cc4C3=O)cc2Br)c(Br)c1 (repeat unit)
  glass transition temperature: 283.00 °C

## *c1cc(C(c2ccc(O)c(N3C(=O)c4ccc(Oc5ccc6c(c5)C(=O)N(*)C6=O)cc4C3=O)c2)(C(F)(F)F)C(F)(F)F)ccc1O (repeat unit)
  glass transition temperature: 266.00 °C

## *c1cc(N2C(=O)c3ccc(Oc4ccc5ccc(Oc6ccc7c(c6)C(=O)N(*)C7=O)cc5c4)cc3C2=O)cc(C(F)(F)F)c1 (repeat unit)
  glass transition temperature: 235.00 °C

## *c1ccc(-c2nc3cc(Oc4ccc5nc(*)c(-c6ccccc6)nc5c4)ccc3nc2-c2ccccc2)cc1 (repeat unit)
  glass transition temperature: 326.00 °C

## *c1ccc(-c2nc3ccc(Oc4ccc5nc(*)c(-c6ccccc6)nc5c4)cc3nc2-c2ccccc2)cc1 (repeat unit)
  glass transition temperature: 304.00 °C

## *c1ccc(C(=O)Oc2ccc3ccc(OC(=O)c4ccc(N5C(=O)CC(SCCOCCSC6CC(=O)N(*)C6=O)C5=O)cc4)cc3c2)cc1 (repeat unit)
  glass transition temperature: 160.00 °C

## *c1ccc(C(c2ccc(N3C(=O)c4ccc(Oc5ccc6c(c5)C(=O)N(*)C6=O)cc4C3=O)cc2)(C(F)(F)F)C(F)(F)F)cc1 (repeat unit)
  glass transition temperature: 305.00 °C

## *c1ccc(C(c2ccc(N3C(=O)c4ccc(Oc5ccc6cc(Oc7ccc8c(c7)C(=O)N(*)C8=O)ccc6c5)cc4C3=O)cc2)(C(F)(F)F)C(F)(F)F)cc1 (repeat unit)
  glass transition temperature: 218.00 °C

## *c1ccc(C(c2ccccc2)(c2ccc(N3C(=O)c4ccc(Oc5ccc6c(c5)C(=O)N(*)C6=O)cc4C3=O)cc2)C(F)(F)F)cc1 (repeat unit)
  glass transition temperature: 293.00 °C

## *c1ccc(C(c2ccccc2)c2ccc(N3C(=O)c4ccc(Oc5ccc6c(c5)C(=O)N(*)C6=O)cc4C3=O)cc2)cc1 (repeat unit)
  glass transition temperature: 269.00 °C

## *c1ccc(Cc2ccc(N3C(=O)c4ccc(Oc5ccc6c(c5)C(=O)N(*)C6=O)cc4C3=O)cc2)cc1 (repeat unit)
  glass transition temperature: 271.00 °C

## *c1ccc(N2C(=O)c3ccc(Oc4ccc(Sc5ccc(Oc6ccc7c(c6)C(=O)N(*)C7=O)cc5)cc4)cc3C2=O)cc1 (repeat unit)
  glass transition temperature: 238.00 °C

## *c1ccc(Oc2cc3ccccc3cc2Oc2ccc(N3C(=O)c4ccc(Oc5ccc6c(c5)C(=O)N(*)C6=O)cc4C3=O)cc2)cc1 (repeat unit)
  glass transition temperature: 275.50 °C

## *c1ccc(Oc2ccc(-c3ccc(Oc4ccc(N5C(=O)c6ccc(Oc7ccc8ccc(Oc9ccc%10c(c9)C(=O)N(*)C%10=O)cc8c7)cc6C5=O)cc4)cc3)cc2)cc1 (repeat unit)
  glass transition temperature: 231.00 °C

## *c1ccc(Oc2ccc(-c3nc4cc(Oc5ccc6nc(*)c(-c7ccccc7)nc6c5)ccc4nc3-c3ccccc3)cc2)cc1 (repeat unit)
  glass transition temperature: 243.00 °C

## *c1ccc(Oc2ccc(-c3nc4cc(Oc5ccc6nc(-c7ccccc7)c(*)nc6c5)ccc4nc3-c3ccccc3)cc2)cc1 (repeat unit)
  glass transition temperature: 263.00 °C

## *c1ccc(Oc2ccc(-c3nc4ccc(Oc5ccc6nc(*)c(-c7ccccc7)nc6c5)cc4nc3-c3ccccc3)cc2)cc1 (repeat unit)
  glass transition temperature: 437.00 °C

## *c1ccc(Oc2ccccc2N2C(=O)c3ccc(Oc4ccc5c(c4)C(=O)N(*)C5=O)cc3C2=O)cc1 (repeat unit)
  glass transition temperature: 264.00 °C

## *c1ccc(Oc2ccccc2Oc2ccc(N3C(=O)c4ccc(Oc5ccc6c(c5)C(=O)N(*)C6=O)cc4C3=O)cc2C(F)(F)F)c(C(F)(F)F)c1 (repeat unit)
  glass transition temperature: 223.00 °C

## *c1ccc2cc(OC(=O)c3cccc(C(=O)Oc4ccc5cc(-c6nc7ccccc7nc6*)ccc5c4)c3)ccc2c1 (repeat unit)
  glass transition temperature: 151.00 °C

## *c1cccc(-c2nc3ccc(Oc4ccc5nc(*)c(-c6ccccc6)nc5c4)cc3nc2-c2ccccc2)c1 (repeat unit)
  glass transition temperature: 270.00 °C

## *c1cccc(C(c2ccccc2)(c2cccc(N3C(=O)c4ccc(Oc5ccc6c(c5)C(=O)N(*)C6=O)cc4C3=O)c2)C(F)(F)F)c1 (repeat unit)
  glass transition temperature: 293.00 °C

## *c1cccc(N2C(=O)c3ccc(Oc4ccc(Sc5ccc(Oc6ccc7c(c6)C(=O)N(*)C7=O)cc5)cc4)cc3C2=O)c1 (repeat unit)
  glass transition temperature: 209.00 °C

## *c1cccc(N2C(=O)c3ccc(Oc4ccc5ccc(Oc6ccc7c(c6)C(=O)N(*)C7=O)cc5c4)cc3C2=O)c1 (repeat unit)
  glass transition temperature: 254.00 °C

## *c1cccc(Oc2ccc(Oc3cccc(N4C(=O)c5ccc(Oc6ccc7c(c6)C(=O)N(*)C7=O)cc5C4=O)c3)cc2)c1 (repeat unit)
  glass transition temperature: 204.00 °C

Source: the PolyMetriX glass transition set
